Assay results published in article PMC11727334, “A self-immolative Kdn-glycoside substrate enables high-throughput screening for inhibitors of Kdnases” (Glycobiology, 2024).

Assays:
[1] = no reference given; cited from earlier work
AfK = target: T1, AfK (Aspergillus fumigatus, UniProt Q4WQS0); assay: Kdnase activity assay: Michaelis-Menten parameters for AfK-catalyzed hydrolysis of substrates; type: biochemical; conditions: 100 mM NaOAc pH 4, 0.01% BSA, 21 °C
T1 construct: AfK was expressed and purified as described by Telford et al; made in house
T1 sequence (Q4WQS0 21-406): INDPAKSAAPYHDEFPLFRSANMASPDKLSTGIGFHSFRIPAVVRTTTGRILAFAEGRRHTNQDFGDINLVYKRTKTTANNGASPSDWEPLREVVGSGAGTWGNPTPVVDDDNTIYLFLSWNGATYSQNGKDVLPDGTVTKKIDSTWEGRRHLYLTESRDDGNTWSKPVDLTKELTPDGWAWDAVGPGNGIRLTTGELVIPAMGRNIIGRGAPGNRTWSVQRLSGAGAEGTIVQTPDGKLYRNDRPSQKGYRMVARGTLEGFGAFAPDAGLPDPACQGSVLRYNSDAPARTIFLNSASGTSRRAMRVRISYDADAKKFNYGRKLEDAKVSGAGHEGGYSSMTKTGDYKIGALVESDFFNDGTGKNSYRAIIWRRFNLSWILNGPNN
Source text: Next, we measured the Michaelis–Menten parameters for AfK-catalyzed hydrolysis of 4 so as to guide assay optimization for the downstream HTS. Specifically, we added stop solution to the AfK-catalyzed reaction at various times and then, after cyclization we measured the fluorescence, which we converted to product concentration using a standard calibration curve (Figs S3–S5, Supporting Information). As expected, our alkyl Kdn glycoside undergoes enzyme-catalyzed hydrolysis with lower rate constants than those for the activated Kdn glycoside 4MU-Kdn. Specifically, the second-order rate constant (kcat/Km) for the AfK-catalyzed hydrolysis of 4 is (4.0 ± 0.8) × 10^3 M^−1 s^−1, while that for 4MU-Kdn (1) is (1.8 ± 0.1) × 10^5 M^−1 s^−1 ([Yeung et al. 2013]) (Table S1, Supporting Information).
The activity of AfK was determined by measuring cleavage of the synthetic Kdnase substrate Kdn-SICL-4MU 4 (Fig. 1). Substrate 4 was incubated at rt for 10 min followed by the addition purified recombinant enzyme. A stop solution containing 100 mM K2CO3 pH ≈ 12 was added at a series of time points starting from 5, 10, 15, 30, 45, 60, 120, 180 min. […] The substrate concentration used ranged of 2–2,000 μM and the amount of 4-methylumbelliferone (4MU) released from 4 was determined using a fluorescence spectrophotometer (BioTek Neo 2) at excitation and emission wavelengths of 360 and 450 nm, respectively. […]

[2] = Base promoted cyclization of liberated aglycon after carbonate stop solution; type: physicochemical; conditions: after addition of carbonate stop solution, pH ≈ 10
Description: With Kdn glycoside 4 in hand, we began assay development. […] We reasoned that hydroxyl group activation is required for cyclization. We therefore allowed the enzymatic reaction to proceed for 5 min and then raised the pH of the solution to a pH of ≈ 10 by addition of a solution of K2CO3 (Fig. 1D). We opted for this raised pH value because it would both facilitate cyclization releasing the 4MU reporter and also terminate the enzyme-catalyzed substrate hydrolysis. Using this approach, we observed a significant increase in fluorescence attributable to AfK-catalyzed hydrolysis of substrate 4. […] That is, in the absence of Kdnase, no hydroxycarbamate aglycon 6 is formed. […] Thus, >98% of the fluorescence signal is produced within 15 min following addition of the basic buffer (Fig. S2, supporting information).

Cc1cc(=O)oc2cc(O)ccc12 [4MU, 4-methylumbelliferone]
pKa [1]: 8.4

Cc1cc(=O)oc2cc(OC(=O)N(C)CCO[C@]3(C(=O)O)C[C@H](O)[C@@H](O)[C@H]([C@H](O)[C@H](O)CO)O3)ccc12 [compound 4, N-methyl-(N-4′-methylumbelliferylcarbonyl)-2-aminoethyl 3-deoxy-D-glycero-α-D-galacto-non-2-ulopyranosidonic acid]
Km (AfK): 950 µM
kcat (AfK): 3.7 ± 0.2 s–1

Cc1cc(=O)oc2cc(OC(=O)N(C)CCO)ccc12 [compound 6]
half-life (t1/2) of first-order cyclization [2]: approximately 2.5 min
